Results published in patent US20060069132A1, “Azolecarboxamide herbicides” (priority 2004, published 2006).

Assays:
[1] = system: cocklebur; test: Test C pre-/postemergence herbicide test; format: in vivo, Xanthium strumarium
Method in brief: (§1)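 Pre/post spray; non-phytotoxic solvent + surfactant. Post-timing 1–4 leaves, 2–18 cm. Read-out: visual % control vs untreated, day 12–14, greenhouse.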

[2] = system: lambsquarters; test: Test C pre-/postemergence herbicide test; format: in vivo, Chenopodium album
Method in brief: as §1

[3] = system: yellow nutsedge; test: Test C pre-/postemergence herbicide test; format: in vivo, Cyperus esculentus
Method in brief: as §1

[4] = system: common ragweed; test: Test C pre-/postemergence herbicide test; format: in vivo, Ambrosia elatior; set-up: key to Plant response rating, Ragweed: 0 = no effect, 100 = complete control
Method in brief: as §1

[5] = system: soybean; test: Test C pre-/postemergence herbicide test; format: in vivo, Glycine max
From the text: (§2) Seeds of plant species selected from bermudagrass (Cynodon dactylon (L.) Pers.), Surinam grass (Urochloa decumbens (Staph) R. D. Webster, previously named Brachiaria decumbens Stapf), cocklebur (Xanthium strumarium L.), corn (Zea mays L.), large crabgrass (Digitaria sanguinalis (L.) Scop.), woolly cupgrass (Eriochloa villosa (Thunb.) Kunth), giant foxtail (Setaria faberi Herrm.), goosegrass (Eleusine indica (L.) Gaertn.), johnsongrass (Sorghum halepense (L.) Pers.), kochia (Kochia scoparia (L.) Schrad.), lambsquarters (Chenopodium album L.), morningglory (Ipomoea coccinea L.), eastern black nightshade (Solanum ptycanthum Dunal), yellow nutsedge (Cyperus esculentus L.), pigweed (Amaranthus retroflexus L.), common ragweed (Ambrosia elatior L.), soybean (Glycine max (L.) Merr.), common (oilseed) sunflower (Helianthus annuus L.) and velvetleaf (Abutilon theophrasti Medik.) were planted and treated preemergence with test chemicals formulated in a non-phytotoxic solvent mixture which included a surfactant.
(§3) At the same time, plants selected from these crop and weed species and also winter barley (Hordeum vulgare L.), blackgrass (Alopecurus myosuroides Huds.), canarygrass (Phalaris minor Retz.), chickweed (Stellaria media (L.) Vill.), downy bromegrass (Bromus tectorum L.), green foxtail (Setaria viridis (L.) Beauv.), Italian ryegrass (Lolium multiflorum Lam.), wheat (Triticum aestivum L.), wild oat (Avenafatua L.) and windgrass (Apera spica-venti (L.) Beauv.) were treated with postemergence applications of some of the test chemicals formulated in the same manner. Plants ranged in height from 2 to 18 cm (1- to 4-leaf stage) for postemergence treatments. Plant species in the flooded paddy test consisted of rice (Oryza sativa), smallflower umbrella sedge (Cyperus difformis L.), ducksalad (Heteranthera limosa (Sw.) Willd.) and barnyardgrass (Echinochloa crus-galli (L.) Beauv.) grown to the 2-leaf stage for testing. Treated plants and controls were maintained in a greenhouse for 12 to 14 days, after which time all species were compared to controls and visually evaluated. Plant response ratings, summarized in Table C, are based on a scale of 0 to 100 where 0 is no effect and 100 is complete control. A dash (-) response means no test result.

[6] = system: common (oilseed) sunflower; test: Test C pre-/postemergence herbicide test; format: in vivo, Helianthus annuus; conditions: preemergence; for Plant response rating (0 = no effect, 100 = complete control), Sunflower: 125 g ai/ha
From the text: as §2, §3

[7] = system: morningglory; test: Test A pre-/postemergence herbicide test; format: in vivo, Ipomoea spp.
Method in brief: (§4)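 Greenhouse injury scoring (0–100, complete control = 100) at approximately ten days follows simultaneous pre- and postemergence application. Soil received a directed spray after seeding; seedlings of 2–10 cm at the one- to two-leaf stage were sprayed to runoff.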

[8] = system: velvetleaf; test: Test A pre-/postemergence herbicide test; format: in vivo, Abutilon theophrasti
Method in brief: as §4

[9] = system: rice; test: Test B pre-/postemergence herbicide test; format: in vivo, Oryza sativa; conditions: preemergence
Method in brief: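 Seeds were planted and treated preemergence with compounds formulated in a non-phytotoxic solvent mixture containing surfactant, while plants at the 1- to 4-leaf stage (2 to 18 cm) received postemergence sprays. Flooded paddy plants were grown to the 2-leaf stage. After 13 to 15 days in a greenhouse, injury was visually rated 0–100 against untreated controls.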

[10] = system: rice; test: Test C flooded paddy test; format: in vivo, Oryza sativa
Method in brief: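 Plants were grown to the 1- to 4-leaf stage (2–18 cm) and then treated postemergence, or grown to the 2-leaf stage for the flooded paddy test. They were held in a greenhouse for 12 to 14 days and then scored by eye against controls, where 0 is no effect and 100 is complete control.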

[11] = 62 g ai/ha, preemergence, scale 0 to 100
[12] = 250 g ai/ha, scale 0-100, preemergence
[13] = 500 g ai/ha, scale 0 to 100 (0 no effect, 100 complete control), visual, 12 to 14 days, preemergence
[14] = Postemergence, 500 g ai/ha, 0 to 100 scale, 0 no effect, 100 complete control
[15] = Postemergence, 2000 g ai/ha, 0 to 100 scale, 0 no effect, 100 complete control
[16] = Preemergence, 500 g ai/ha, visual rating, 0 to 100 scale (0 no effect, 100 complete control)
[17] = Preemergence, 2000 g ai/ha, visual rating, 0 to 100 scale (0 no effect, 100 complete control)
[18] = Postemergence, 500 g ai/ha, scale 0 to 100
[19] = Postemergence, 250 g ai/ha, scale 0 to 100, 0 no effect, 100 complete control
[20] = postemergence, 125 g ai/ha, scale 0 to 100
[21] = postemergence, 62 g ai/ha, scale 0 to 100
[22] = preemergence, 500 g ai/ha, visual injury, 0 to 100 scale (0 no effect, 100 complete control)

## C=CCNC(=O)c1cccc(NC(=O)c2nn(C(C)(C)C)nc2CC)c1 [Compound 414]
[1]; [11]
  Plant response rating, Cocklebur: 0
[1]; 125 g ai/ha, preemergence
  Plant response rating (0 = no effect, 100 = complete control), Cocklebur: 15
[1]; [12]
  Plant response rating, Cocklebur: 20
[1]; [13]
  Plant response rating, Cocklebur: 30
[2]; [11]
  Plant response rating, Lambsquarters: 95
[2]; 125 g ai/ha, preemergence
  Plant response rating (0 = no effect, 100 = complete control), Lambsquarters: 95
[2]; [12]
  Plant response rating, Lambsquarters: 95
[2]; [13]
  Plant response rating, Lambsquarters: 100
[3]; [11]
  Plant response rating, Nutsedge, Yellow: 0
[3]; 125 g ai/ha, preemergence
  Plant response rating (0 = no effect, 100 = complete control), Nutsedge, Yellow: 0
[3]; [13]
  Plant response rating, Nutsedge, Yellow: 20
[4]; [11]
  Plant response rating, Ragweed: 15
[4]; 125 g ai/ha, preemergence
  Plant response rating (0 = no effect, 100 = complete control), Ragweed: 45
[4]; [13]
  Plant response rating, Ragweed: 65
[5]; [11]
  Plant response rating, Soybean: 0
[5]; 125 g ai/ha, preemergence
  Plant response rating (0 = no effect, 100 = complete control), Soybean: 20
[5]; [13]
  Plant response rating, Soybean: 65
[6]; 62 g ai/ha, scale 0 to 100
  Plant response rating, Sunflower: 0
[6]
  Plant response rating (0 = no effect, 100 = complete control), Sunflower: 0
[6]; 500 g ai/ha, scale 0 to 100 (0 no effect, 100 complete control), visual, 12 to 14 days
  Plant response rating, Sunflower: 0

## CCCCOC(=O)c1cccc(NC(=O)c2cc(C(C)(C)C)nn2CC)c1 [Compound 86]
[7]; [14]
  Morningglory plant response rating: 20
[7]; [15]
  Plant response rating, Morningglory: 35
[7]; [16]
  Morningglory plant response rating: 0
[7]; Preemergence, 2000 g ai/ha, 0 to 100 scale, 0 no effect, 100 complete control
  Morningglory plant response rating: 15
[8]; [14]
  Velvetleaf plant response rating: 40
[8]; [15]
  Plant response rating, Velvetleaf: 30
[8]; [16]
  Velvetleaf plant response rating: 0
[8]; [17]
  Velvetleaf plant response rating: 10
[9]; 125 g ai/ha, 0 to 100 scale, 0 is no effect, 100 is complete control
  Plant response rating, Rice: 0
[1]; [18]
  Cocklebur plant response rating: 100
[1]; [19]
  Plant response rating, Cocklebur: 100
[1]; [20]
  Plant response rating, Cocklebur: 95
[1]; [21]
  Plant response rating, Cocklebur: 85
[2]; [18]
  Lambsquarters plant response rating: 100
[2]; [19]
  Plant response rating, Lambsquarters: 100
[2]; [20]
  Plant response rating, Lambsquarters: 100
[2]; [21]
  Plant response rating, Lambsquarters: 100
[3]; [18]
  Nutsedge, Yellow plant response rating: 30
[3]; [19]
  Plant response rating, Nutsedge, Yellow: 10
[3]; [20]
  Plant response rating, Nutsedge, Yellow: 5
[3]; [21]
  Plant response rating, Nutsedge, Yellow: 0
[4]; [18]
  Ragweed plant response rating: 70
[4]; [19]
  Plant response rating, Ragweed: 70
[4]; [20]
  Plant response rating, Ragweed: 65
[4]; [21]
  Plant response rating, Ragweed: 10
[5]; [18]
  Soybean plant response rating: 95
[5]; [19]
  Plant response rating, Soybean: 90
[5]; [20]
  Plant response rating, Soybean: 70
[5]; [21]
  Plant response rating, Soybean: 45

## CCOC(=O)c1cccc(NC(=O)c2cc(C(C)(C)C)nn2C)n1 [Compound 313]
[7]; [14]
  Morningglory plant response rating: 30
[7]; [15]
  Plant response rating, Morningglory: 55
[7]; [17]
  Morningglory plant response rating: 55
[7]; [22]
  Morningglory plant response rating: 20
[8]; [14]
  Velvetleaf plant response rating: 40
[8]; [15]
  Plant response rating, Velvetleaf: 50
[8]; [17]
  Velvetleaf plant response rating: 80
[8]; [22]
  Velvetleaf plant response rating: 65
[9]; 125 g ai/ha, 0 = no effect, 100 = complete control
  Rice plant response rating (0 to 100 scale): 20
[9]; 500 g ai/ha, visual rating, 0 = no effect, 100 = complete control
  Plant response rating, Rice: 40
[10]; 16 g ai/ha, scale 0 to 100
  Rice plant response rating: 0
[10]; 31 g ai/ha, scale 0 to 100
  Rice plant response rating: 0
[10]; 62 g ai/ha, scale 0 to 100
  Rice plant response rating: 0
[10]; 125 g ai/ha, scale 0 to 100 (0 no effect, 100 complete control)
  Rice plant response rating: 20

## CCOC(=O)c1cccc(NC(=O)c2nn(C(C)(C)CC)nc2CC)c1 [Compound 375]
[1]; [11]
  Plant response rating, Cocklebur: 0
[1]; 125 g ai/ha, preemergence
  Plant response rating (0 = no effect, 100 = complete control), Cocklebur: 0
[1]; [12]
  Plant response rating, Cocklebur: 0
[1]; [19]
  Plant response rating, Cocklebur: 15
[1]; [20]
  Plant response rating, Cocklebur: 10
[1]; postemergence, 31 g ai/ha, scale 0 to 100
  Plant response rating, Cocklebur: 0
[1]; [21]
  Plant response rating, Cocklebur: 10
[2]; [11]
  Plant response rating, Lambsquarters: 5
[2]; 125 g ai/ha, preemergence
  Plant response rating (0 = no effect, 100 = complete control), Lambsquarters: 10
[2]; [12]
  Plant response rating, Lambsquarters: 90
[2]; [20]
  Plant response rating, Lambsquarters: 40
[2]; [21]
  Plant response rating, Lambsquarters: 10
[3]; 31 g ai/ha, scale 0 to 100, last section of Table C, preemergence
  Plant response rating, Nutsedge, Yellow: 0
[3]; [11]
  Plant response rating, Nutsedge, Yellow: 0
[3]; 125 g ai/ha, preemergence
  Plant response rating (0 = no effect, 100 = complete control), Nutsedge, Yellow: 0
[3]; [12]
  Plant response rating, Nutsedge, Yellow: 0
[4]; [11]
  Plant response rating, Ragweed: 0
[4]; 125 g ai/ha, preemergence
  Plant response rating (0 = no effect, 100 = complete control), Ragweed: 5
[4]; [12]
  Plant response rating, Ragweed: 10
[4]; [20]
  Plant response rating, Ragweed: 10
[4]; [21]
  Plant response rating, Ragweed: 5
[5]; [11]
  Plant response rating, Soybean: 0
[5]; 125 g ai/ha, preemergence
  Plant response rating (0 = no effect, 100 = complete control), Soybean: 0
[5]; [12]
  Plant response rating, Soybean: 0
[6]; 62 g ai/ha, scale 0 to 100
  Plant response rating, Sunflower: 0
[6]
  Plant response rating (0 = no effect, 100 = complete control), Sunflower: 0
[6]; 250 g ai/ha, scale 0-100
  Plant response rating, Sunflower: 0
